{
  "source": "patent US20230174636A1",
  "about": "“COMPOSITIONS AND METHODS FOR TREATING CANCER” (RUSH UNIVERSITY MEDICAL CENTER, priority 2020, published 2023)",
  "key": {"[1]": {"system": "Hep3B (human liver cancer cells)", "assay": "MTT assay (cell viability), Hep3B", "format": "cell-based", "details": "48 h, serum-free, combined with mAb a3-3a", "procedure": "(§1) MTT assay: Mitochondrial activity was measured with the 3-(4, 5-dimethylthiazol-2-yl)-2, 5-diphenyltetrazolium bromide (MTT) assay (Sigma) as described before. The cells were grown on 24-well culture plates with 500 μl of medium and treated with various reagents according to the experimental design. At the end of the treatment period, 300 μl of culture medium were removed from each well, and 20 μl of MTT solution (5 mg/ml) were added and incubated for 1 h."}, "MCF-7 cells": {"system": "MCF-7 cells", "assay": "MTT assay (cell viability), MCF-7", "format": "cell-based, human", "details": "MCF-7, 48 h, serum-free, combined with mAb a3-3a", "procedure": "as §1"}, "BT-549 cells": {"system": "BT-549 cells", "assay": "MTT assay (cell viability), BT-549", "format": "cell-based, human", "details": "BT-549, 48 h, serum-free, combined with mAb a3-3a", "procedure": "as §1"}, "splenocytes": {"system": "splenocytes", "assay": "FACS of T cells in splenocytes of PDX mice", "format": "in vivo", "details": "intranasal peptide plus p40 mAb, 3 weeks", "procedure": "Isolation of splenocytes: Spleens isolated from treated or untreated PDX mice were placed into a cell strainer and mashed with a syringe plunger. Resulting single-cell suspensions were treated with RBC lysis buffer (Sigma-Aldrich), washed, and cultured in RPMI 1640 supplemented with 10% FBS, 50 μM 2-ME, 2 mM L-glutamine, 100 U/ml penicillin, and 100 μg/ml streptomycin.\nFlow cytometry: Single-cell suspensions isolated from mouse spleen or tumor were stained with Zombie Aqua™ Fixable Viability Kit (Biolegend) according to the manufacturer's instructions. Cells were washed with FACS buffer (ThermoFisher) and stained with FITC-anti-human CD4 antibody and APC/Cy7-anti-human CD8 antibody (Biolegend) for extracellular stains. For IFNγ staining, cells were stained with PE-anti-human IFNγ antibody (Biolegend) and detected by flow cytometry analysis. Only PE-treated and unstained cells served as control. Flow cytometric analyses were performed using the LSRFortessa analyzer (BD Biosciences) and analyzed using the FlowJo Software (v10) as described."}, "TNBC tumor [2]": {"system": "TNBC tumor", "assay": "Tumor size in PDX mouse model of TNBC", "format": "in vivo, mice", "details": "for shrinkage of TNBC tumor in mAb a3-3a-treated mice / tumor shrinkage in mAb a3-3a-treated TNBC mice: peptide 0.1 mg/kg daily intranasal plus a3-3a 2 mg/kg weekly i.p.; for shrinkage of TNBC tumor in mAb a3-3a-treated mice: 3 weeks; for tumor shrinkage in mAb a3-3a-treated TNBC mice: three weeks; for p40 mAb a3-3a-mediated reduction of TNBC tumor: peptide 0.1 mg/kg daily intranasal plus p40 mAb 2 mg/kg weekly, 2 weeks, infrared imaging", "text": "Animals: Animal maintaining and experiments were in accordance with National Institute of Health guidelines and were approved by the Institutional Animal Care and Use committee of the Rush University of Medical Center, Chicago, Ill. Patient-derived xenograft (PDX) model (ID # TM00096) was purchased from Jackson Laboratory, Bar Harbor, Me., USA. In this model, TNBC tumor fragments at passage P1-P9 (invasive ductal carcinoma; TNBC ER^−PR^−HER2^−) were engrafted in the flank of female 6-8 week old NOD scid gamma (NSG) mice. Mice were shipped to us by Jackson Laboratory within ˜2 weeks following tumor engraftment. PDX mice were maintained in our temperature-controlled animal vivarium with adequate food and water.\nTumor measurement: Tumor growth was measured with a caliper and tumor cross-sectional area was determined with the formula (mm^2=longest diameter X shortest diameter). Treatment with p40 mAb started when the tumor sizes reached 0.6-0.8 cm^2 in area. The p40 mAb a3-3a was injected once a week intraperitoneally in 0.1 ml volume of sterile PBS-1% normal mouse serum. The tumors were then measured to determine progression or regression. Infrared dye (Alexa 800-conjugated 2DG dye; Licor) was injected via tail-vein on the day before imaging analysis. Mice were sacrificed at the end of the study and tumor tissues were collected for different biochemical analyses."}, "TNBC tumor [3]": {"system": "TNBC tumor", "assay": "H&E staining of tumor sections of PDX mice", "format": "in vivo", "details": "peptide 0.1 mg/kg daily intranasal plus p40 mAb 2 mg/kg weekly, 2 weeks"}, "human IFNγ, human IL-10": {"system": "human IFNγ, human IL-10", "assay": "IFNγ and IL-10 in tumor tissue extracts by sandwich ELISA", "format": "in vivo, mice", "details": "peptide 0.1 mg/kg daily intranasal plus p40 mAb, 2 weeks", "procedure": "FIG. 23A-23B. Intranasal wtTIDM peptide stimulates the p40 mAb-mediated induction of IFNγ while reducing the level of IL-10 in TNBC tumor tissues of patient-derived xenograft (PDX) mice. Female 6-8 week old NOD scid gamma (NSG) mice were engrafted TNBC tumor fragments at passage P1-P9 (invasive ductal carcinoma; TNBC ER^−/−/PR^−/−/HER2^−/−) in the flank. After about 4 weeks of engraftment, when tumors of PDX mice were 0.6-0.8 cm^2 in size, mice were treated with p40 mAb and hamster IgG at a dose of 2 mg/kg body wt once a week. Mice were also treated with wild type (wt) and mutated (m) TLR2-interacting domain of MyD88 (TIDM) peptide at a dose of 0.1 mg/kg body wt daily via intranasal route. After 2 weeks of treatment, levels of human IFNγ (23A) and human IL-10 (23B) were measured in tumor tissue extracts by sandwich ELISA (Thermofisher). Results are mean±SEM of 6-7 mice per group. ***p<0.001.\n(§2) Sandwich ELISA: Sandwich ELISA was used to quantify p402 and p40 as described by us. Briefly, for p402, mAb a3-1d (1.3 mg/mL) was diluted 1:3000 and added to each well (100 μL/well) of a 96-well ELISA plate for coating. The biotinylated p402 mAb d7-12c (2 mg/mL) was diluted 1:3000 and used as detection antibody. Similarly for p40, mAb a3-3a (1.3 mg/mL) and biotinylated p40 mAb a3-7g (2 mg/mL) were also diluted 1:3000 and used as coating and detection antibodies, respectively. Concentrations of IFN-γ, IL-12, IL-23, and IL-10 were measured in serum or tissue homogenates by ELISA (eBioscience/ThermoFisher), according to the manufacturer's instructions as described before."}, "IFNγ, IL-10": {"system": "IFNγ, IL-10", "assay": "Serum IFNγ and IL-10 by sandwich ELISA in PDX mice", "format": "in vivo", "details": "peptide 0.1 mg/kg daily intranasal plus p40 mAb, 2 weeks", "procedure": "as §2"}},
  "note": "Where no end group is shown, it is not given here. [ ]: non-standard residue; d: D form.",
  "data": [
    {"substance": "NEMO-binding domain (NBD) peptide [wtNBD]", "values": [
      {"measurement": "death induced by p40 mAb a3-3a in presence of NBD peptide (MTT)", "setting": "[1]", "value": "greater death"},
      {"measurement": "death induced by p40 mAb a3-3a in presence of NBD peptide (MTT)", "setting": "MCF-7 cells", "value": "greater death"},
      {"measurement": "death induced by p40 mAb a3-3a in presence of NBD peptide (MTT)", "setting": "BT-549 cells", "value": "greater death"},
      {"measurement": "Tc1 (CD8+IFNγ+) response in p40 mAb-treated TNBC mice", "setting": "splenocytes", "value": "markedly stimulated"},
      {"measurement": "shrinkage of TNBC tumor in mAb a3-3a-treated mice", "setting": "TNBC tumor [2]", "value": "greater shrinkage"}
    ]},
    {"substance": "TLR2-interacting domain of MyD88 (TIDM) peptide (DRQIKIWFQNRRMKWKKPGAHQK; not fully specified (some residues)) [wtTIDM]", "values": [
      {"measurement": "death by combination of mAb a3-3a and TIDM peptide (MTT)", "setting": "[1]", "value": "markedly induced death"},
      {"measurement": "death by combination of mAb a3-3a and TIDM peptide (MTT)", "setting": "MCF-7 cells", "value": "markedly induced death"},
      {"measurement": "death of TNBC tumor in p40 mAb a3-3a-treated mice (H&E)", "setting": "TNBC tumor [3]", "value": "stimulated the death"},
      {"measurement": "p40 mAb a3-3a-mediated induction of IFNγ in tumor tissues", "setting": "human IFNγ, human IL-10", "value": "stimulated"},
      {"measurement": "p40 mAb a3-3a-mediated reduction of IL-10 in tumor tissues", "setting": "human IFNγ, human IL-10", "value": "potentiated"},
      {"measurement": "death by combination of mAb a3-3a and TIDM peptide (MTT)", "setting": "BT-549 cells", "value": "markedly induced death"},
      {"measurement": "Tc1 (CD8+IFNγ+) response in p40 mAb-treated TNBC mice", "setting": "splenocytes", "value": "markedly stimulated"},
      {"measurement": "tumor shrinkage in mAb a3-3a-treated TNBC mice", "setting": "TNBC tumor [2]", "value": "greater tumor shrinkage"},
      {"measurement": "p40 mAb a3-3a-mediated reduction of TNBC tumor", "setting": "TNBC tumor [2]", "value": "significantly stimulated"},
      {"measurement": "p40 mAb a3-3a-mediated induction of IFNγ in serum", "setting": "IFNγ, IL-10", "value": "stimulated"},
      {"measurement": "p40 mAb a3-3a-mediated reduction of IL-10 in serum", "setting": "IFNγ, IL-10", "value": "potentiated"}
    ]},
    {"substance": "mTIDM: Mutated (m) TIDM control peptide, drqikiwfqnrmikwkkPGWHGD (SEQ ID NO.: 5) ([dD][dR][dQ][dI][dK][dI][dW][dF][dQ][dN][dR][dM][dI][dK][dW][dK][dK]PGWHGD) [reference compound]", "values": [
      {"measurement": "death by combination of mAb a3-3a and TIDM peptide (MTT)", "setting": "[1]", "value": "not"},
      {"measurement": "death by combination of mAb a3-3a and TIDM peptide (MTT)", "setting": "MCF-7 cells", "value": "not"},
      {"measurement": "death of TNBC tumor in p40 mAb a3-3a-treated mice (H&E)", "setting": "TNBC tumor [3]", "value": "not"},
      {"measurement": "p40 mAb a3-3a-mediated induction of IFNγ in tumor tissues", "setting": "human IFNγ, human IL-10", "value": "not"},
      {"measurement": "p40 mAb a3-3a-mediated reduction of IL-10 in tumor tissues", "setting": "human IFNγ, human IL-10", "value": "not"},
      {"measurement": "death by combination of mAb a3-3a and TIDM peptide (MTT)", "setting": "BT-549 cells", "value": "not"},
      {"measurement": "tumor shrinkage in mAb a3-3a-treated TNBC mice", "setting": "TNBC tumor [2]", "value": "not"},
      {"measurement": "p40 mAb a3-3a-mediated reduction of TNBC tumor", "setting": "TNBC tumor [2]", "value": "remained unable to stimulate"},
      {"measurement": "p40 mAb a3-3a-mediated induction of IFNγ in serum", "setting": "IFNγ, IL-10", "value": "not"},
      {"measurement": "p40 mAb a3-3a-mediated reduction of IL-10 in serum", "setting": "IFNγ, IL-10", "value": "not"}
    ]},
    {"substance": "mNBD: Mutated (m) NBD control peptide, drqikiwfqnrrmkwkkLDASAL (SEQ ID NO: 9) ([dD][dR][dQ][dI][dK][dI][dW][dF][dQ][dN][dR][dR][dM][dK][dW][dK][dK]LDASAL) [reference compound]", "values": [
      {"measurement": "death induced by p40 mAb a3-3a in presence of NBD peptide (MTT)", "setting": "[1]", "value": "not seen"},
      {"measurement": "death induced by p40 mAb a3-3a in presence of NBD peptide (MTT)", "setting": "MCF-7 cells", "value": "not seen"},
      {"measurement": "death induced by p40 mAb a3-3a in presence of NBD peptide (MTT)", "setting": "BT-549 cells", "value": "not seen"},
      {"measurement": "shrinkage of TNBC tumor in mAb a3-3a-treated mice", "setting": "TNBC tumor [2]", "value": "did not exhibit such effect"}
    ]}
  ]
}
